From patent publication US20230108687A1, “GENE EDITING METHODS FOR TREATING SPINAL MUSCULAR ATROPHY” (The Broad Institute, Inc., priority 2020, published 2023)

Legend:
[1] = tested on: human SMN2 transgene exon 7 C840T (C6T) in SMA mESCs; experiment: Adenine base editing of SMN2 C840T (C6T) after transfection of SMA mESCs; format: cell-based, mouse; settings: ABE8 fusions, FIG. 4
[2] = tested on: DNA; settings: SpCas9 mutation relative to SEQ ID NO: 5; UniProtKB Q99ZW2 entry; cited from earlier work

Molecule	editing of C840T [1]	decreased DNA cleavage [2]
iSpyMac: iSpyMac-variant ABE8e adenine base editor; SEQ ID NO: 476	edited C840T with high efficiency	
175-307 deletion: SpCas9 mutation relative to SEQ ID NO: 5 (protein, Streptococcus pyogenes) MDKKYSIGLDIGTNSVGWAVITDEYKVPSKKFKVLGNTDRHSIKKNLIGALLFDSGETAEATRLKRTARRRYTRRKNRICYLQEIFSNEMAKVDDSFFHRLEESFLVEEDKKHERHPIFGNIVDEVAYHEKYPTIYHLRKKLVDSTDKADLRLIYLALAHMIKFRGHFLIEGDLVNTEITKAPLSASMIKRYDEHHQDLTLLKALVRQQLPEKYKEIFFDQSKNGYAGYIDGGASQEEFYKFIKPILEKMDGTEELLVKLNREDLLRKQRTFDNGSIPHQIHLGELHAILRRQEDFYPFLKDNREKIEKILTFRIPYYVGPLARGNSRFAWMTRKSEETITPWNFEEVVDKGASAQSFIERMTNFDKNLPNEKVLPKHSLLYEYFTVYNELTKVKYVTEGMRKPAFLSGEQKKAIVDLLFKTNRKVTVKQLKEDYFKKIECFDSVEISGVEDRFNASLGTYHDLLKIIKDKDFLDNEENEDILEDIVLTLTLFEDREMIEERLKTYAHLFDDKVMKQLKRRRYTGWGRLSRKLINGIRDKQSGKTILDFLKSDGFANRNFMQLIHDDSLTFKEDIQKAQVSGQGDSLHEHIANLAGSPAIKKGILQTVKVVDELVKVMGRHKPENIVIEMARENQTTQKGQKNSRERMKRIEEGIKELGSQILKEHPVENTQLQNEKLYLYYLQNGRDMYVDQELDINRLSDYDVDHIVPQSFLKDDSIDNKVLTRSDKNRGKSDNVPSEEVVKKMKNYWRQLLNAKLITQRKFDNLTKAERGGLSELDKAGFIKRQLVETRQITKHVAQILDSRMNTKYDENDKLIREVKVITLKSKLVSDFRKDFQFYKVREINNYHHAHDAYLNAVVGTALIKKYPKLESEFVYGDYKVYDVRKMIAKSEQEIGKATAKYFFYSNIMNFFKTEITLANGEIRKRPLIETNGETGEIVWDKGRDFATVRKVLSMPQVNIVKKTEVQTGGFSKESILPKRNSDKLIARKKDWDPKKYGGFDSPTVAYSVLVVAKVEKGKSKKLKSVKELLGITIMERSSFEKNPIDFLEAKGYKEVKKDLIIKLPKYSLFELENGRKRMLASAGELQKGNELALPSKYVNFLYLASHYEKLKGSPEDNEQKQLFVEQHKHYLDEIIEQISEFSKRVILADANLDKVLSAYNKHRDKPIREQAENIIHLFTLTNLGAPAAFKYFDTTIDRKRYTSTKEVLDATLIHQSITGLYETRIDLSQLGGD		About 50% decreased DNA cleavage
